In patent publication US20230203004A1, “RSV INHIBITING 3-SUBSTITUTED QUINOLINE AND CINNOLINE DERIVATIVES” (Janssen Sciences Ireland Unlimited Company, priority 2020, published 2023):
Like-named read-outs stand apart in the source and are kept apart here.

Experiments:
[1] = Cytotoxicity in HeLa cells (ATP content, ATPlite kit); assay type: cell-based; details: human, TOX HELA CC50
Method: (§1) Black 384-well clear-bottom microtiter plates (Corning, Amsterdam, The Netherlands) were filled via acoustic drop ejection using the echo liquid handler (Labcyte, Sunnyvale, California). 200 nL of compound stock solutions (100% DMSO) were transferred to the assay plates. 9 serial 4-fold dilutions of compound were made, creating per quadrant the same compound concentration. The assay was initiated by adding 10 µL of culture medium to each well (RPMI medium without phenol red, 10% FBS-heat inactivated, 0.04% gentamycin (50 mg/mL). All addition steps are done by using a multidrop dispenser (Thermo Scientific, Erembodegem, Belgium). Next, rgRSV224 virus (MOI = 1) diluted in culture medium was added to the plates. rgRSV224 virus is an engineered virus that includes an additional GFP gene (Hallak LK, Spillmann D, Collins PL, Peeples ME. Glycosaminoglycan sulfation requirements for respiratory syncytial virus infection; Journal of virology (2000), 74(22), 10508-13) and was in-licensed from the NIH (Bethesda, MD, USA). Finally, 20 µL of a HeLa cell suspension (3,000 cells/well) were plated. Medium, virus- and mock-infected controls were included in each test. The wells contain […] DMSO per volume. Cells were incubated at 37° C. in a 5% CO2 atmosphere. Three days post-virus exposure, viral replication was quantified by measuring GFP expression in the cells by an in house developed MSM laser microscope (Tibotec, Beerse, Belgium). The EC50 was defined as the 50% inhibitory concentration for GFP expression. In parallel, compounds were incubated for three days in a set of white 384-well microtiter plates (Corning) and the cytotoxicity of compounds in HeLa cells was determined by measuring the ATP content of the cells using the ATPlite kit (Perkin Elmer, Zaventem, Belgium) according to the manufacturer’s instructions. The CC50 was defined as the 50% concentration for cytotoxicity.

rgRSV224 virus = experiment: Antiviral activity: rgRSV224 (GFP) replication in HeLa cells; assay type: cell-based, respiratory syncytial virus (RSV); details: averaged data of several repeat experiments
Method: as §1

[2] = human respiratory syncytial virus, HeLa, 72 h, read-out: RSV HELA EC50, HeLa cells, rgRSV224 MOI = 1, GFP expression three days post-virus exposure
[3] = read-out: RSV HELA EC50, HeLa cells, rgRSV224 MOI = 1, GFP expression three days post-virus exposure

SMILES	CC50 at 3 days [1] [nM]	EC50 (rgRSV224 virus; [2]) [nM]	EC50 (rgRSV224 virus; [3]) [nM]
COc1cc(C(=O)NCC(O)(c2nc(-c3ccc(F)cc3)cc(C(C)(C)O)c2F)C(F)(F)F)cc2cc(C)nnc12 (racemic) [compound 279, (RS)Methoxy-3-Methyl-N-(3,3,3-Trifluoro-2-(3-Fluoro-6-(4-Fluorophenyl)-4-(2-Hydroxypropan-2-yl)Pyridin-2-yl)-2-Hydroxypropyl)Cinnoline-6-Carboxamide]	16000	47	–
COc1cc(C(=O)NC[C@](O)(c2cc(C(C)(C)O)c(F)c(-c3ccc(F)cc3)n2)C2CC2(C)C)cc2cc(C)nnc12 (single isomer, unassigned) [compound 294, N-((-)(2,2-dimethylcyclopropyl)(5-fluoro-6-(4-fluorophenyl)-4-(2-hydroxypropanyl)pyndmyl)hydroxyethyl)-8-methoxy-3-methylcmnoline-6-carboxamide]	13000	4.9	–
COc1cc(C(=O)NC[C@@](O)(c2cc(C(C)(C)O)c(F)c(-c3ccc(F)cc3)n2)C2CC2(C)C)cc2cc(C)nnc12 (single isomer, unassigned) [compound 295, N-((+)(2,2-dimethylcyclopropyl)(5-fluoro-6-(4-fluorophenyl)-4-(2-hydroxypropanyl)pyridinyl)hydroxyethyl)-8-methoxy-3-methylcinnoline-6-carboxamide]	12000	180	–
COc1cc(C(=O)NC[C@](O)(c2cc(C(C)(C)O)c(F)c(-c3ccc(F)cc3)n2)C2C[C@H]2F)cc2cc(C)nnc12 (single isomer, unassigned) [compound 300, N-((*S)(5-Fluoro-6-(4-Fluorophenyl)-4-(2-Hydroxypropanyl)Pyridinyl)((1*S,2*R)Fluorocyclopropyl)Hydroxyethyl)-8-Methoxy-3-Methylcinnoline-6-Carboxamide]	27000	0.7	–
COc1cc(C(=O)NC[C@@](O)(c2cc(C(C)(C)O)c(F)c(-c3ccc(F)cc3)n2)C2C[C@@H]2F)cc2cc(C)nnc12 (single isomer, unassigned) [compound 301, N-((*R)(5-Fluoro-6-(4-Fluorophenyl)-4-(2-Hydroxypropanyl)Pyridinyl)((1*R,2*S)Fluorocyclopropyl)Hydroxyethyl)-8-Methoxy-3-Methylcinnoline-6-Carboxamide]	22000	336	–
COc1cc(C(=O)NC[C@](O)(c2cc(C(C)(C)O)c(F)c(-c3ccc(F)cc3)n2)C2C[C@@H]2F)cc2cc(C)nnc12 (single isomer, unassigned) [compound 302, N-((*S)(5-Fluoro-6-(4-Fluorophenyl)-4-(2-Hydroxypropanyl)Pyridinyl)((1*S.2*S)Fluorocyclopropyl)Hydroxyethyl)-8-Methoxy-3-Methylcinnoline-6-Carboxamide]	> 25000	1.2	–
COc1cc(C(=O)NC[C@@](O)(c2cc(C(C)(C)O)c(F)c(-c3ccc(F)cc3)n2)C2C[C@H]2F)cc2cc(C)nnc12 (single isomer, unassigned) [compound 303, N-((*R)(5-Fluoro-6-(4-Fluorophenyl)-4-(2-Hydroxypropanyl)Pyridinyl)((l*R, 2*R)Fluorocyclopropyl)Hydroxyethyl)-8-Methoxy-3-Methylcinnoline-6-Carboxamide]	23000	295	–
COc1cc(C(=O)NCC(O)(c2cc(C(C)(C)O)c(F)c(-c3ccc(F)cc3)n2)C(F)F)cc2cc(C)cnc12 (single isomer, unassigned; (+)) [compound 203, (+)-N-{3,3-Difluoro-2-[5-Fluoro-6-(4-Fluorophenyl)-4-(2-Hydroxypropan-2-yl)Pyridin-2-yl]-2-Hydroxypropyl}-8-Methoxy-3-Methylquinoline-6-Carboxamide]	43000	–	480
Cc1cnc2c(OC3CC3)cc(C(=O)NC[C@](O)(c3cc(C(C)(C)O)c(F)c(-c4ccc(F)cc4)n3)C(F)(F)F)cc2c1 [compound 323, (-)Cyclopropoxy-3-Methyl-N-(3,3,3-Trifluoro-2-(5-Fluoro-6-(4-Fluorophenyl)-4-(2-Hydroxypropan-2-yl)Pyridin-2-yl)-2-Hydroxypropyl)Quinoline-6-Carboxamide]	–	–	3.8
